Tested on: growth of superfluous hair
Test: Inhibition of superfluous hair growth evaluated by the Trichoscan method
Format: in vivo
Settings: 10% capryloyl glycine cream, topical, compared with eflornithine efficacy reported in Eur. J Dermatol 2008, 18 (1): 65-70
Method: The ability of capryloyl glycine to inhibit the growth of superfluous hair was evaluated by the Trichoscan® method (http://trichoscan.com/pages/english/professional-info/reference-values.php).

In the case of `CCCCCCCC(=O)NCC(=O)O` [capryloyl glycine], the “ability to inhibit the growth of superfluous hair (efficacy)” value is reported as “efficacy comparable to that of eflornithine”.

Reference: patent US11166893B2, “Topical hirsutism treatment” (BMG PHARMA SRL, priority 2015, dated 2021)
